The compounds below were run against T1, Adenosine receptor A1 (Homo sapiens) (UniProt P30542) (assay: Allosteric enhancing activity at human adenosine A1 receptor expressed in CHO cells assessed as increase in CCPA-induced [3H]DPCPX displacement at 10 uM after 90 mins relative to control).
T1 sequence (whole entry): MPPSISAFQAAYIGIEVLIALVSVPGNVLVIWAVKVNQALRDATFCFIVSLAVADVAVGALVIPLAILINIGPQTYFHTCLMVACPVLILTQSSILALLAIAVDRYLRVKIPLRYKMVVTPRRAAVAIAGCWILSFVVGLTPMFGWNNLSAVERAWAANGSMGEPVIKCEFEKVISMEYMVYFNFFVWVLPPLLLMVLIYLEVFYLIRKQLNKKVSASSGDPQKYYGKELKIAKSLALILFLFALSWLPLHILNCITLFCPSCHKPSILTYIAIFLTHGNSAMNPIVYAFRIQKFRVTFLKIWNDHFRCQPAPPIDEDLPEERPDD
Assay type: cell-based

With Nc1sc(-c2ccccc2)c(CN2CCN(c3ccc(Cl)c(C(F)(F)F)c3)CC2)c1C(=O)c1ccc(Cl)cc1 as the compound, how does the Ratio Ki read?
Its Ratio Ki is 7.9.

For Cc1sc(N)c(C(=O)c2ccc(Cl)cc2)c1CN1CCN(c2ccc([N+](=O)[O-])cc2)CC1, which Ratio Ki is on record?
The Ratio Ki was 1.1.

Which Ratio Ki does the source give for Nc1sc(-c2ccc(Cl)cc2)c(CN2CCN(c3ccc(OC(F)(F)F)cc3)CC2)c1C(=O)c1ccc(Cl)cc1 here?
Its Ratio Ki is 8.9.

Which Ratio Ki does the source give for Cc1sc(N)c(C(=O)c2ccc(Cl)cc2)c1CN1CCN(c2ccc(Cl)cc2)CC1 here?
The Ratio Ki was 4.2.

For CCc1sc(N)c(C(=O)c2ccc(Cl)cc2)c1CN1CCN(c2ccc(Cl)cc2)CC1, which Ratio Ki is on record?
Its Ratio Ki is 6.

Which Ratio Ki does the source give for Nc1scc(CN2CCN(c3ccc(OC(F)(F)F)cc3)CC2)c1C(=O)c1ccc(Cl)cc1 here?
The Ratio Ki was 5.3.

For Cc1sc(N)c(C(=O)c2ccc(Cl)cc2)c1CN1CCN(c2cccc(Cl)c2)CC1, which Ratio Ki is on record?
The Ratio Ki was 6.1.

How did the Ratio Ki turn out when Nc1scc(CN2CCN(c3ccc(Cl)cc3)CC2)c1C(=O)c1ccc(Cl)cc1 was run?
The Ratio Ki was 5.6.

The compounds below were run against T1, Adenosine receptor A1 (Homo sapiens) (assay: Allosteric enhancing activity at human adenosine A1 receptor expressed in CHO cells assessed as increase in [3H]-2-chloro-N6-cyclopentyladenosine Bmax at 10 uM after 90 mins relative to control).
Assay type: cell-based

Nc1sc(-c2ccccc2)c(CN2CCN(c3ccc(Cl)c(C(F)(F)F)c3)CC2)c1C(=O)c1ccc(Cl)cc1 was tested. Which fold change (FC) did it give?
The fold change (FC) was 8.5.

Cc1sc(N)c(C(=O)c2ccc(Cl)cc2)c1CN1CCN(c2ccc([N+](=O)[O-])cc2)CC1 was tested. Which fold change (FC) did it give?
Its fold change (FC) is 1.3.

Which fold change (FC) does the source give for Nc1sc(-c2ccc(Cl)cc2)c(CN2CCN(c3ccc(OC(F)(F)F)cc3)CC2)c1C(=O)c1ccc(Cl)cc1 here?
The fold change (FC) was 10.7.

With Cc1sc(N)c(C(=O)c2ccc(Cl)cc2)c1CN1CCN(c2ccc(Cl)cc2)CC1 as the compound, how does the fold change (FC) read?
The fold change (FC) was 4.7.

Which fold change (FC) does the source give for CCc1sc(N)c(C(=O)c2ccc(Cl)cc2)c1CN1CCN(c2ccc(Cl)cc2)CC1 here?
The fold change (FC) was 6.5.

Nc1scc(CN2CCN(c3ccc(OC(F)(F)F)cc3)CC2)c1C(=O)c1ccc(Cl)cc1 was tested. Which fold change (FC) did it give?
Its fold change (FC) is 6.8.

Which fold change (FC) does the source give for Cc1sc(N)c(C(=O)c2ccc(Cl)cc2)c1CN1CCN(c2cccc(Cl)c2)CC1 here?
The fold change (FC) was 6.5.

How did the fold change (FC) turn out when Nc1scc(CN2CCN(c3ccc(Cl)cc3)CC2)c1C(=O)c1ccc(Cl)cc1 was run?
Its fold change (FC) is 7.

The compounds below were run against T2, Adenosine receptor A3 (Homo sapiens) (UniProt P0DMS8) (assay: Displacement of [3H]MRE-3008-F20 from human adenosine A3 receptor expressed in CHO cells at 10 uM after 120 mins by scintillation counting).
T2 sequence (whole entry): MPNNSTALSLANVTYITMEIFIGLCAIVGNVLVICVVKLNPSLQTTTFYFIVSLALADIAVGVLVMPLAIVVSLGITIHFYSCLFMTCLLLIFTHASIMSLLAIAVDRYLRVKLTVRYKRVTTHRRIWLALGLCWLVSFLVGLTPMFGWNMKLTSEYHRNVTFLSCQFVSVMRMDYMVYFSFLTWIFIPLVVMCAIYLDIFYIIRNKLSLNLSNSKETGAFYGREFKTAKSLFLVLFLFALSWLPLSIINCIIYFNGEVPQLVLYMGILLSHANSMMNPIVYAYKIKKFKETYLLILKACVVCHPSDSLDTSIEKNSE
Assay type: cell-based

How did the inhibition turn out when Nc1sc(-c2ccccc2)c(CN2CCN(c3ccc(Cl)c(C(F)(F)F)c3)CC2)c1C(=O)c1ccc(Cl)cc1 was run?
Its inhibition is under 12%.

Which inhibition does the source give for Cc1sc(N)c(C(=O)c2ccc(Cl)cc2)c1CN1CCN(c2ccc([N+](=O)[O-])cc2)CC1 here?
Its inhibition is under 12%.

Which inhibition does the source give for Nc1sc(-c2ccc(Cl)cc2)c(CN2CCN(c3ccc(OC(F)(F)F)cc3)CC2)c1C(=O)c1ccc(Cl)cc1 here?
The inhibition was under 12%.

With Cc1sc(N)c(C(=O)c2ccc(Cl)cc2)c1CN1CCN(c2ccc(Cl)cc2)CC1 as the compound, how does the inhibition read?
The inhibition was under 12%.

For CCc1sc(N)c(C(=O)c2ccc(Cl)cc2)c1CN1CCN(c2ccc(Cl)cc2)CC1, which inhibition is on record?
Its inhibition is under 12%.

Cc1sc(N)c(C(=O)c2ccc(Cl)cc2)c1CN1CCN(c2cccc(Cl)c2)CC1 was tested. Which inhibition did it give?
The inhibition was under 12%.

What follows are compounds tested against Adenosine receptor A2a (Homo sapiens) (UniProt P29274) (assay: Displacement of [3H]ZM241385 from human adenosine A2A receptor expressed in CHO cells at 10 uM after 120 mins by scintillation counting).
Sequence of Adenosine receptor A2a (Homo sapiens) (P29274 whole entry): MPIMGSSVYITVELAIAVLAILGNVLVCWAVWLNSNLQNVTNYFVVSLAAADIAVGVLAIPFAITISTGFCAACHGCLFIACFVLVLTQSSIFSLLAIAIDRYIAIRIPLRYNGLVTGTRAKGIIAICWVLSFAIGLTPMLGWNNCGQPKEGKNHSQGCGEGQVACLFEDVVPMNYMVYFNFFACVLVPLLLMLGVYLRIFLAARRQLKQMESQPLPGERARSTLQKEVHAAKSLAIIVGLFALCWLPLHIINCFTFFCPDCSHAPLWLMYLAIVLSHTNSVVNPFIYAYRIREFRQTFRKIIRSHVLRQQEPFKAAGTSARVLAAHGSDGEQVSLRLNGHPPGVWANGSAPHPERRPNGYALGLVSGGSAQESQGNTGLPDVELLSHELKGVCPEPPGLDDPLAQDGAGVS
Assay type: cell-based

Which inhibition does the source give for Nc1sc(-c2ccccc2)c(CN2CCN(c3ccc(Cl)c(C(F)(F)F)c3)CC2)c1C(=O)c1ccc(Cl)cc1 here?
The inhibition was under 12%.

With Cc1sc(N)c(C(=O)c2ccc(Cl)cc2)c1CN1CCN(c2ccc([N+](=O)[O-])cc2)CC1 as the compound, how does the inhibition read?
Its inhibition is under 12%.

How did the inhibition turn out when Nc1sc(-c2ccc(Cl)cc2)c(CN2CCN(c3ccc(OC(F)(F)F)cc3)CC2)c1C(=O)c1ccc(Cl)cc1 was run?
Its inhibition is under 12%.

How did the inhibition turn out when Cc1sc(N)c(C(=O)c2ccc(Cl)cc2)c1CN1CCN(c2ccc(Cl)cc2)CC1 was run?
The inhibition was under 12%.

For CCc1sc(N)c(C(=O)c2ccc(Cl)cc2)c1CN1CCN(c2ccc(Cl)cc2)CC1, which inhibition is on record?
The inhibition was under 12%.

Cc1sc(N)c(C(=O)c2ccc(Cl)cc2)c1CN1CCN(c2cccc(Cl)c2)CC1 was tested. Which inhibition did it give?
The inhibition was under 12%.

The compounds below were run against T1, Adenosine receptor A1 (Homo sapiens) (assay: Displacement of [3H]DPCPX from human adenosine A1 receptor expressed in CHO cells at 10 uM after 120 mins by scintillation counting).
Assay type: cell-based

With Nc1sc(-c2ccccc2)c(CN2CCN(c3ccc(Cl)c(C(F)(F)F)c3)CC2)c1C(=O)c1ccc(Cl)cc1 as the compound, how does the inhibition read?
The inhibition was under 12%.

Cc1sc(N)c(C(=O)c2ccc(Cl)cc2)c1CN1CCN(c2ccc([N+](=O)[O-])cc2)CC1 was tested. Which inhibition did it give?
The inhibition was under 12%.

How did the inhibition turn out when Nc1sc(-c2ccc(Cl)cc2)c(CN2CCN(c3ccc(OC(F)(F)F)cc3)CC2)c1C(=O)c1ccc(Cl)cc1 was run?
The inhibition was under 12%.

For Cc1sc(N)c(C(=O)c2ccc(Cl)cc2)c1CN1CCN(c2ccc(Cl)cc2)CC1, which inhibition is on record?
Its inhibition is under 12%.

CCc1sc(N)c(C(=O)c2ccc(Cl)cc2)c1CN1CCN(c2ccc(Cl)cc2)CC1 was tested. Which inhibition did it give?
Its inhibition is under 12%.

With Cc1sc(N)c(C(=O)c2ccc(Cl)cc2)c1CN1CCN(c2cccc(Cl)c2)CC1 as the compound, how does the inhibition read?
The inhibition was under 12%.

Each compound was assayed against T1, Adenosine receptor A1 (Homo sapiens) (assay: Allosteric enhancing activity at human adenosine A1 receptor expressed in CHO cells assessed as inhibition of forskolin-stimulated cAMP accumulation at 100 nM incubated for 10 mins prior to forskolin-stimulation measured after 5 mins by competition protein binding assay in presence of 2-chloro-N6-cyclopentyladenosine).
Assay type: functional, cell-based

Nc1sc(-c2ccccc2)c(CN2CCN(c3ccc(Cl)c(C(F)(F)F)c3)CC2)c1C(=O)c1ccc(Cl)cc1 was tested. Which inhibition did it give?
Its inhibition is 65%.

For Cc1sc(N)c(C(=O)c2ccc(Cl)cc2)c1CN1CCN(c2ccc([N+](=O)[O-])cc2)CC1, which inhibition is on record?
Its inhibition is 13%.

Nc1sc(-c2ccc(Cl)cc2)c(CN2CCN(c3ccc(OC(F)(F)F)cc3)CC2)c1C(=O)c1ccc(Cl)cc1 was tested. Which inhibition did it give?
The inhibition was 72%.

Cc1sc(N)c(C(=O)c2ccc(Cl)cc2)c1CN1CCN(c2ccc(Cl)cc2)CC1 was tested. Which inhibition did it give?
The inhibition was 40%.

For CCc1sc(N)c(C(=O)c2ccc(Cl)cc2)c1CN1CCN(c2ccc(Cl)cc2)CC1, which inhibition is on record?
The inhibition was 53%.

Cc1sc(N)c(C(=O)c2ccc(Cl)cc2)c1CN1CCN(c2cccc(Cl)c2)CC1 was tested. Which inhibition did it give?
The inhibition was 54%.

The compounds below were run against T1, Adenosine receptor A1 (Homo sapiens) (assay: Allosteric enhancing activity at human adenosine A1 receptor expressed in CHO cells assessed as inhibition of forskolin-stimulated cAMP accumulation at 10 uM incubated for 10 mins prior to forskolin-stimulation measured after 5 mins by competition protein binding assay).
Assay type: functional, cell-based

Which inhibition does the source give for Nc1sc(-c2ccccc2)c(CN2CCN(c3ccc(Cl)c(C(F)(F)F)c3)CC2)c1C(=O)c1ccc(Cl)cc1 here?
The inhibition was 64%.

Cc1sc(N)c(C(=O)c2ccc(Cl)cc2)c1CN1CCN(c2ccc([N+](=O)[O-])cc2)CC1 was tested. Which inhibition did it give?
The inhibition was 9%.

With Nc1sc(-c2ccc(Cl)cc2)c(CN2CCN(c3ccc(OC(F)(F)F)cc3)CC2)c1C(=O)c1ccc(Cl)cc1 as the compound, how does the inhibition read?
The inhibition was 78%.

Cc1sc(N)c(C(=O)c2ccc(Cl)cc2)c1CN1CCN(c2ccc(Cl)cc2)CC1 was tested. Which inhibition did it give?
The inhibition was 44%.

CCc1sc(N)c(C(=O)c2ccc(Cl)cc2)c1CN1CCN(c2ccc(Cl)cc2)CC1 was tested. Which inhibition did it give?
The inhibition was 60%.

With Cc1sc(N)c(C(=O)c2ccc(Cl)cc2)c1CN1CCN(c2cccc(Cl)c2)CC1 as the compound, how does the inhibition read?
Its inhibition is 58%.
